Reference: patent US20080081801A1, “PORPHYRIN OXYGEN INFUSION FOR INCREASING CONCENTRATIONS IN TUMOR TISSUES” (priority 2002, published 2008)

Test system: Ascites hepatoma LY80
Experiment: Oxygen partial pressure in tumor tissues of tumor-bearing rats after intra-arterial injection of the sample (phosphorescence quenching, PdPor, OxySpot)
Assay type: in vivo, Donryu rats
Settings: oxygen-saturated sample
Experimental: Animals with cancer were prepared by transplanting tumor cells in desired sites of laboratory animals such as, for example, rats, hamsters, rabbits or beagles.
Rats were bred for several days until tumors develop and then subjected to experiments under anesthesia (e.g., using Nembutal, diethyl ether or halothane anesthetic gas). Rats were intubated through the cervical trachea and ventilated under positive pressure by a respirator. A polyethylene catheter was inserted into a left carotid artery so that a distal end of the catheter is located at a position short of a bifurcation of the common iliac artery, and then backward cannulation was carried out to provide an administration rout of sample in the descending aorta.
The oxygen partial pressure in the tumor tissues may be determined by intravenously injecting a phosphorescent probe (palladium coproporphyrin (PdPor)), irradiating light, and monitoring a phosphorescence quenching time with an oxygen partial pressure monitor. PdPor is intravenously injected through a tail vein at 5-20 minutes before administration of the sample. […] The oxygen partial pressure in the tumor site of the right leg was measured at 5 to 30 points in air or an atmosphere containing 99% oxygen with a device for measurement of an oxygen partial pressure (e.g., OxySpot (Trademark) made by Medical System Corp.), and served as controls. […]

Substance: bovine serum albumin: serum albumin, injected oxygen-saturated without porphyrin
- change in the oxygen partial pressure (PO2) in the tumor tissue: no change
